These results are taken from patent publication US9453000B2, “Polycyclic compound” (EISAI R&D MANAGEMENT CO., LTD., priority 2007, dated 2016).

Each structure is given as a SMILES string.

The test system of the assay is Aβ42 production in rat primary neuronal culture. The experiment in a line: Quantification of Aβ peptide in culture of neurons from rat fetus brain (Aβ ELISA). In kind it is cell-based. Particulars: Primary cortical neuron, 72 h, rat primary cortical neurons (embryonic day 18 Wistar), three days after addition of the compound, Aβx-42 ELISA of medium, read-out: Aβ42 production reducing effect IC50. As to the method:
Quantification of Aβ Peptide in Culture of Neurons from Rat Fetus Brain
(1) Rat Primary Neuronal Culture
Primary neuronal cultures were prepared from the cerebral cortex of embryonic day 18 Wistar rats (Charles River Japan, Yokohama, Japan). Specifically, the embryos were aseptically removed from pregnant rats under ether anesthesia. The brain was isolated from the embryo and immersed in an ice-cold L-15 medium (Invitrogen Corp. Cat #11415-064, Carlsbad, Calif., USA, or SIGMA L1518, for example). The cerebral cortex was collected from the isolated brain under a stereoscopic microscope. The cerebral cortex fragments collected were enzymatically treated in an enzyme solution containing 0.25% trypsin (Invitrogen Corp. Cat #15050-065, Carlsbad, Calif., USA) and 0.01% DNase (Sigma D5025, St. Louis, Mo., USA) at 37° C. for 30 minutes to disperse the cells. Here, the enzymatic reaction was stopped by adding inactivated horse serum to the solution. The enzymatically treated solution was centrifuged at 1,500 rpm for five minutes to remove the supernatant. 5 to 10 ml of a medium was added to the resulting cell mass. Neurobasal medium (Invitrogen Corp. Cat #21103-049, Carlsbad, Calif., USA) supplemented with 2% B27 supplement (Invitrogen Corp. Cat #17504-044, Carlsbad, Calif., USA), 25 μM 2-mercaptoethanol (2-ME, WAKO Cat #139-06861, Osaka, Japan), 0.5 mM L-glutamine (Invitrogen Corp. Cat #25030-081, Carlsbad, Calif., USA), and Antibiotics-Antimycotics (Invitrogen Corp. Cat #15240-062, Carlsbad, Calif., USA) was used as the medium (Neurobasal/B27/2-ME). However, the above Neurobasal medium not supplemented with 2-ME (Neurobasal/B27) was used for the assay. The cells were redispersed by mild pipetting of the cell mass to which the medium was added. The cell dispersion was filtered through a 40-μm nylon mesh (Cell Strainer, Cat #35-2340, Becton Dickinson Labware, Franklin Lakes, N.J., USA) to remove the remaining cell mass, and thus a neuronal cell suspension was obtained. The neuronal cell suspension was diluted with the medium and then plated in a volume of 100 μl/well at an initial cell density of 5×10^5 cells/cm^2 in a 96-well polystyrene culture plate pre-coated with poly-L or D-lysine (Falcon Cat #35-3075, Becton Dickinson Labware, Franklin Lakes, N.J., USA coated with poly-L-lysine using the method shown below, or BIOCOAT™ cell environments Poly-D-lysine cell ware 96-well plate, Cat #35-6461, Becton Dickinson Labware, Franklin Lakes, N.J., USA). Poly-L-lysine coating was carried out as follows. 100 μg/ml of a poly-L-lysine (SIGMA P2636, St. Louis, Mo., USA) solution was aseptically prepared with a 0.15 M borate buffer (pH 8.5). 100 μl/well of the solution was added to the 96-well polystyrene culture plate and incubated at room temperature for one or more hours or at 4° C. overnight or longer. The coated 96-well polystyrene culture plate was washed with sterile water four or more times, and then dried or rinsed with, for example, sterile PBS or medium, and used for cell plating. The plated cells were cultured in the culture plate at 37° C. in 5% CO2-95% air for one day. Then, the total amount of the medium was replaced with a fresh Neurobasal™/B27/2-ME medium, and then the cells were cultured for further three days.
The drug was added to the culture plate on Day 4 of culture as follows. The total amount of the medium was removed from the wells, and 180 μl/well of Neurobasal medium not containing 2-ME and containing 2% B-27 (Neurobasal/B27) was added thereto. A solution of the test compound in dimethyl sulfoxide (hereinafter abbreviated as DMSO) was diluted with Neurobasal/B27 at 10-fold of the final concentration. 20 μl/well of the dilution was added to and sufficiently mixed with the medium. The final DMSO concentration was 1% or less. Only DMSO was added to the control group.
The cells were cultured for three days after addition of the compound, and the total amount of the medium was collected. […]
For the compound `COc1nc(/C=C/c2nc3n(n2)CCC(C)N3c2ccccc2C(F)(F)F)ccc1-n1cnc(C)c1` (single isomer, unassigned; (+)) [Example 373, (+)-2-{(E)-2-[6-methoxy-5-(4-methyl-1H-imidazol-1-yl)pyridin-2-yl]vinyl}-5-methyl-4-(2-trifluoromethylphenyl)-4,5,6,7-tetrahydro-[1,2,4]triazolo[1,5-a]pyrimidine], the IC50 was found to be 29 nM.

With `COc1cc(/C=C(\F)c2nc3n(n2)CCCC3(O)c2cc(F)c(F)c(F)c2)ccc1-n1cnc(C)c1` (single isomer, unassigned; (-)) [Example 94, (−)-2-{(Z)-1-fluoro-2-[3-methoxy-4-(4-methyl-1H-imidazol-1-yl)phenyl]vinyl}-8-(3,4,5-trifluorophenyl)-5,6,7,8-tetrahydro[1,2,4]triazolo[1,5-a]pyridin-8-ol], the IC50 turned out to be 52 nM.

Regarding `COc1cc(/C=C/c2nc3n(n2)CCC3c2ccccc2)ccc1-n1cnc(C)c1` (single isomer, unassigned; (-)) [Example 141, (−)-2-{(E)-2-[3-methoxy-4-(4-methyl-1H-imidazol-1-yl)phenyl]vinyl}-7-phenyl-6,7-dihydro-5H-pyrrolo[1,2-b][1,2,4]triazole], the IC50 was found to be 36 nM.

On to `COc1nc(/C=C/c2nc3n(n2)CCOC3c2ccc(Cl)cc2)ccc1-n1cnc(C)c1` (single isomer, unassigned; (-)) [Example 262, (−)-8-(4-chlorophenyl)-2-{(E)-2-[6-methoxy-5-(4-methyl-1H-imidazol-1-yl)pyridin-2-yl]vinyl}-5,6-dihydro-8H-[1,2,4]triazolo[5,1-c][1,4]oxazine], for which the IC50 is 74 nM.

Take `COc1nc(/C=C/c2nc3n(n2)CCCC3c2cc(F)cc(F)c2)ccc1-n1cnc(C)c1` (single isomer, unassigned; (-)) [Example 365, (−)-8-(3,5-difluorophenyl)-2-{(E)-2-[6-methoxy-5-(4-methyl-1H-imidazol-1-yl)pyridin-2-yl]vinyl}-5,6,7,8-tetrahydro-[1,2,4]triazolo[1,5-a]pyridine]: the IC50 stood at 21 nM.

`COc1nc(/C=C/c2nc3n(n2)CCOC3c2ccccc2C(F)(F)F)ccc1-n1cnc(C)c1` (single isomer, unassigned; (-)) [Example 368, (−)-2-{(E)-2-[6-methoxy-5-(4-methyl-1H-imidazol-1-yl)pyridin-2-yl]vinyl}-8-(2-trifluoromethylphenyl)-5,6-dihydro-8H-[1,2,4]triazolo[5,1-c][1,4]oxazine]: the IC50 came to 25 nM.

Take `COc1nc(/C=C/c2nc3n(n2)CCC3c2cc(F)cc(F)c2)ccc1-n1cnc(C)c1` (single isomer, unassigned; (-)) [Example 384, (−)-7-(3,5-difluorophenyl)-2-{(E)-2-[6-methoxy-5-(4-methyl-1H-imidazol-1-yl)pyridin-2-yl]vinyl}-6,7-dihydro-5H-pyrrolo[1,2-b][1,2,4]triazole]: the IC50 came to 36 nM.

On to `CCCCC(O)c1ccc(C2CCCn3nc(/C=C/c4ccc(-n5cnc(C)c5)c(OC)c4)nc32)cc1` (stereo not shown) [Example 19, 1-{4-{2-{(E)-2-[3-methoxy-4-(4-methyl-1H-imidazol-1-yl)phenyl]vinyl}-5,6,7,8-tetrahydro[1,2,4]triazolo[1,5-a]pyridin-8-yl}phenyl}pentan-1-ol], for which the IC50 worked out at 43 nM.

Regarding `COc1nc(/C=C/c2nc3n(n2)CC[C@@H](C)N3c2ccc(F)cc2F)ccc1-n1cnc(C)c1` [Example 371, (R)-4-(2,4-difluorophenyl)-2-{(E)-2-[6-methoxy-5-(4-methyl-1H-imidazol-1-yl)pyridin-2-yl]vinyl}-5-methyl-4,5,6,7-tetrahydro-[1,2,4]triazolo[1,5-a]pyrimidine], the IC50 is 27 nM.

Turning to `COc1nc(/C=C/c2nc3n(n2)CC[C@H]3c2ccccc2)ccc1-n1cnc(C)c1` [Example 376, (S)-2-{(E)-2-[6-methoxy-5-(4-methyl-1H-imidazol-1-yl)pyridin-2-yl]vinyl}-7-phenyl-6,7-dihydro-5H-pyrrolo[1,2-b][1,2,4]triazole], the IC50 was found to be 28 nM.

For `COc1nc(/C=C/c2nc3n(n2)CC[C@H]3c2ccc(F)c(F)c2)ccc1-n1cnc(C)c1` [Example 380, (S)-7-(3,4-difluorophenyl)-2-{(E)-2-[6-methoxy-5-(4-methyl-1H-imidazol-1-yl)pyridin-2-yl]vinyl}-6,7-dihydro-5H-pyrrolo[1,2-b][1,2,4]triazole], the IC50 was determined as 29 nM.

For the compound `COc1nc(/C=C/c2nc3n(n2)CC[C@H]3c2ccccc2C(F)(F)F)ccc1-n1cnc(C)c1` [Example 390, (S)-2-{(E)-2-[6-methoxy-5-(4-methyl-1H-imidazol-1-yl)pyridin-2-yl]vinyl}-7-(2-trifluoromethylphenyl)-6,7-dihydro-5H-pyrrolo[1,2-b][1,2,4]triazole], the IC50 worked out at 26 nM.

Take `COc1nc(/C=C/c2nc3n(n2)CC[C@H]3c2cc(F)ccc2C(F)(F)F)ccc1-n1cnc(C)c1` [Example 392, (S)-7-(5-fluoro-2-trifluoromethylphenyl)-2-{(E)-2-[6-methoxy-5-(4-methyl-1H-imidazol-1-yl)pyridin-2-yl]vinyl}-6,7-dihydro-5H-pyrrolo[1,2-b][1,2,4]triazole]: the IC50 worked out at 22 nM.
